From patent US6888014B2, “Dammarane sapogenins, their use as anti-cancer agents, and a process for producing same” (PanaGin Pharmaceuticals Inc., priority 2001, dated 2005) come the findings set out here.

Data set [1] concerns Human non-small-cell lung carcinoma H460 cells. The data set is described as follows: Cancer cell inhibition in vitro, crystal violet staining, cell viability. It counts as cell-based. To be noted: for V(%) cancer cell viability / Absorbency of Stained Cells (M ± SD) / viability at 40 µg/mL / viability at 25 µg/mL: H460 cells, 24 hours; for Absorbency of Stained Cells (M ± SD): 590 nm; for inhibitory effect on proliferation of H460 cells (in words): P<0.01 compared with control; for viability at 40 µg/mL / viability at 25 µg/mL: Homo sapiens, NCI-H460, read-out: V(%) cancer cell viability; for inhibitory effect on proliferation of H460 cells compared with Rh2 (in words): P<0.05 compared with that of Rh2. The protocol: Composition: 20(S)-Rh2 was provided by Shenyang Pegasus Pharmaceutical R&D Co., China, with a purity of over 98%. The molecular weight for Rh2 was 622.3. Sapogenins PAM-120, PBM-100 and PAN-30 were derived from the process stated in Example 1. The molecular weights of PAM-120, PBM-100 and PAN-30 were respectively 442.7, 474.7 and 766.6, and the purity for each of the three agents was higher than 99%. Rh2, PAM-120, PBM-100 and PAN-30 were dissolved 1 gram each separately in 100 ml absolute ethanol and stored at 4° C. the agents were diluted with RPMI-1640 medium to the desired concentrations as shown in Table 1.
Cells: Human non-small-cell lung carcinoma H460 cells were incubated in RPMI-1640 medium added with 10% fetal calf serum, 100 units penicillin/ml, and 100 μg streptomycin/ml in 5% CO2 at 37° C.
In vitro treatment: H460 cells were seeded in 96-well flat-bottomed microtest-plates at 1.2×10^3 cells per well, six wells in each group, incubated in humidified 5% CO2 at 37° C. for 24 hours with or without the agents according to the schedule as shown below.
After the 24 hours of incubation, an equal volume of 10% formalin phosphate-buffered saline containing 0.2% crystal violet was added to each well and left at room temperature for 20 minutes. The plates were then washed twice with distilled water and dried at room temperature. The absorbency of the stained cells at 590 nm was then measured using an automatic microtest-plate reader. Average absorbency of the control wells (Ac) without any treatment was calculated, average absorbency of each treatment group (ATi) was determined, and then the average cell viability of each treatment group (Vi) was derived using the following formula: [formula] B. Result

For data set [2], the system named is human malignant glioma cells (U87). The data set is described as follows: Mouse intracranial human malignant glioma (U87) model (FIG. 5). The class given is in vivo, Nude mice. The conditions noted are these: 25 mg/kg and 50 mg/kg, treatment from day 10 post implantation, p<0.01 Kaplan Meier. The protocol: FIG. 5 illustrates a graph of the therapeutic effect of PAM-120 on mouse intracranial human malignant glioma (U87) model. Nude mice were intracranially implanted with human malignant glioma cells (U87). On day 10 post tumor implantation, animals were treated with various dosages of PAM-120.

The subject of the next data set is Murine sarcoma 180 cells. The data set is described as follows: Cancer bearing mice life prolongation test. The class given is in vivo, C57BL/6J mice. To be noted: for DS50 (days of survival for 50% animals) / LPR(%) life prolongation rate: oral, lifetime or up to 120 days. The text has this:
Fifty (50) C57BL/6J mice weighing 18-22 g, without sex discrimination, were randomly assigned to one control group and four treatment groups, each with 10 animals. Murine sarcoma 180 cells were intraperitoneally transplanted to the mice. 20(S)-Rh2 was provided by Shenyang Pegasus Pharmaceutical R&D Co., China, with a purity of over 98%. The molecular weight for Rh2 was 622.3. The novel sapogenin PAM-120 was derived from the process described in Example 2 according to this invention. The molecular weight of PAM-120 was 442.7, and the purity for PAM-120 was higher than 99%. The drugs were prepared into a suspension form respectively. The mice were weighed daily prior to drug administration to determine the actual measurement of drug administered. Drug administration started from 24 hours post tumor inoculation. The mice in the two low-dose treatment groups were orally given the Rh2 and PAM-120 preparations using a gastric catheter at a daily dose of 10 mg/kg of Rh2 and 10 mg/kg of PAM-120 respectively for a lifetime or up to 120 days. The mice in the two high-dose treatment groups were orally given the Rh2 and PAM-120 preparations using a gastric catheter at a daily dose of 25 mg/kg of Rh2 and 25 mg/kg of PAM-120 respectively for a lifetime or up to 120 days. The mice in the control group were orally given a normal saline. For each group, the days of survival for 50% animals (DS50) and the average days of survival (ADS) were recorded. For groups containing one or more animals that could have lived longer than 120 days (the designed sacrifice day was d 120), the ADS would be so calculated that these animals were counted as if they had died on day 120, and a note would be made. The life prolongation rate (LPR) was calculated with the following formula: [formula] B. Result

Data set [3] deals with human malignant glioma cells (U87). The data set is described as follows: Mouse subcutaneous human malignant glioma (U87) model (FIG. 6). It counts as in vivo, Nude mice. The conditions noted are these: 25 mg/ml; for tumor growth compared with PBS control animals (in words): treatment from day 7, tumor sizes measured day 7 and day 24. The protocol:
FIG. 6 illustrates a graph of the therapeutic effect of PAM-120 on mouse subcutaneous human malignant glioma (U87) model. Nude mice were subcutaneously implanted with human malignant glioma cells (U87). On day 7 post tumor implantation, animals were treated with 25 mg/ml PAM-120 or equal dose of Rh2. Tumor sizes were measured on day 7 (before treatment) and day 24 (after the treatment).

As to “3-O-[β-D-glucopyranosyl(1→2)-β-D-glucopyranosyl]-dammara-20(22E)-diene-3,12-diol [PAN-30]”, the results for the “V(%) cancer cell viability” value in data set [1] (high-dose 40 μg/ml) and in data set [1] (low-dose 25 μg/ml) were 41.49% and 70.30%, respectively. Further, the “Absorbency of Stained Cells (M ± SD)” value in data set [1] (high-dose 40 μg/ml) was “.147 ± .032”; in data set [1] (low-dose 25 μg/ml), “.249 ± .045”. For the same compound, the “inhibitory effect on proliferation of H460 cells (in words)” value in data set [1] is listed as “significant inhibitory effect”.

The term viability denotes a read-out of living cells in per cent, often relative to untreated cells. With `C=C(CCC=C(C)C)C1CC[C@]2(C)C1[C@H](O)CC1[C@@]3(C)CC[C@H](O)C(C)(C)C3CC[C@]12C` (stereo partly drawn) [PAM-120, Dammara-20(21)-diene-3,12-diol], the “survival time after tumor implantation (in words)” value in data set [2] is on record as “significantly longer survival time”. Moreover, in data set [1] (high-dose 40 μg/ml), the “Absorbency of Stained Cells (M ± SD)” value is listed as “.125 ± .031” and the viability at 40 µg/mL turned out to be 35.3%. In addition, in data set [1] (low-dose 25 μg/ml), the “Absorbency of Stained Cells (M ± SD)” value is reported as “.220 ± .051” and the viability at 25 µg/mL was 62.1%. In data set [1], the “inhibitory effect on proliferation of H460 cells (in words)” value is on record as “significant inhibitory effect” and the “inhibitory effect on proliferation of H460 cells compared with Rh2 (in words)” value is “notable increase in inhibitory effect”. Also, the “mice that survived the whole 120 days, no tumors found postmortally” value in the data set with Murine sarcoma 180 cells (25 mg/kg treatment group, 10 animals) is on record as “Two”. The “anti-cancer effect on murine sarcoma compared with Rh2 (in words)” value with Murine sarcoma 180 cells (P<0.01 compared with relevant Rh2 treatment dose groups) is on record as “Better anti-cancer effect”. In addition, the “life prolongation of mice bearing murine sarcoma compared with control (in words)” value in the data set on Murine sarcoma 180 cells (P<0.01 compared with the average days of survival in the control) is “significant increase in life prolongation”. In the data set with Murine sarcoma 180 cells (10 mg/kg daily), the “DS50 (days of survival for 50% animals)” value is recorded as 38 days and the “LPR(%) life prolongation rate” value is given as 162.6%. Besides, in the data set on Murine sarcoma 180 cells (25 mg/kg daily), the “DS50 (days of survival for 50% animals)” value is recorded as 77 days and the “LPR(%) life prolongation rate” value stood at 448.3%. The “tumor sizes compared with Rh2 treated animals (in words)” value in data set [3] (equal dose of Rh2, day 24, p<0.05) is listed as “significantly smaller”. For the same compound, the “tumor growth compared with PBS control animals (in words)” value in data set [3] is “significantly inhibited tumor growth”.

For `C=C(C)[C@H](O)C/C=C(\C)C1CC[C@]2(C)C1[C@H](O)CC1[C@@]3(C)CC[C@H](O)C(C)(C)C3[C@@H](O)C[C@]12C` (stereo partly drawn) [PBM-100], in data set [1] (high-dose 40 μg/ml), the “Absorbency of Stained Cells (M ± SD)” value was “.130 ± .019” and the viability at 40 µg/mL was found to be 36.5%. Moreover, in data set [1] (low-dose 25 μg/ml), the “Absorbency of Stained Cells (M ± SD)” value is on record as “.223 ± .040” and the viability at 25 µg/mL came out at 62.7%. Further, in data set [1], the “inhibitory effect on proliferation of H460 cells (in words)” value was “significant inhibitory effect” and the “inhibitory effect on proliferation of H460 cells compared with Rh2 (in words)” value is recorded as “notable increase in inhibitory effect”.

Take `CC(C)=CCC[C@](C)(O)[C@H]1CC[C@]2(C)[C@@H]1[C@H](O)C[C@@H]1[C@@]3(C)CC[C@H](O[C@@H]4O[C@H](CO)[C@@H](O)[C@H](O)[C@H]4O)C(C)(C)[C@@H]3CC[C@]12C` [Rh2, 3-O-β-D-glucopyranosyl-20(s)-protopanaxadiol, reference compound]: in data set [1] (high-dose 40 μg/ml), the “V(%) cancer cell viability” value stood at 50.99% and the “Absorbency of Stained Cells (M ± SD)” value was “.181 ± .049”. In data set [1] (low-dose 25 μg/ml), the “V(%) cancer cell viability” value worked out at 78.49% and the “Absorbency of Stained Cells (M ± SD)” value was “.278 ± .030”. In the data set on Murine sarcoma 180 cells (10 mg/kg daily), the “DS50 (days of survival for 50% animals)” value amounted to 22 days and the “LPR(%) life prolongation rate” value is on record as 68.0%. In addition, in the data set on Murine sarcoma 180 cells (25 mg/kg daily), the “DS50 (days of survival for 50% animals)” value is 41 days and the “LPR(%) life prolongation rate” value came to 201.4%. Further, the “tumor growth compared with PBS control animals (in words)” value in data set [3] was “significantly inhibited tumor growth”.
